In ChEMBL document CHEMBL1201862, “PubChem BioAssay data set” (2004):
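48-hour exposure; five concentrations; linearly interpolated endpoints. GI50 marks 50% less growth.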 The source made the active and inactive calls. No stated cut-off is given here; in the data, active = GI50 up to about 1.1 µM and inactive = higher.

Experiments:
Assay in all cases: NCI anticancer screen, dose series, 48 h
NCI-H460 = tested on: NCI-H460
SK-MEL-2 = tested on: SK-MEL-2
HCT-116 = tested on: HCT-116
RPMI-8226 = tested on: RPMI-8226
DU-145 = tested on: DU-145
A549 = tested on: A549
PC-3 = tested on: PC-3
UACC-257 = tested on: UACC-257
SW-620 = tested on: SW-620
U-251 = tested on: U-251
SK-MEL-5 = tested on: SK-MEL-5
COLO 205 = tested on: COLO 205
NCI-H522 = tested on: NCI-H522
MOLT-4 = tested on: MOLT-4
TK-10 = tested on: TK-10
SK-OV-3 = tested on: SK-OV-3
MDA-MB-435 = tested on: MDA-MB-435
T47D = tested on: T47D
NCI-H23 = tested on: NCI-H23

Measured: GI50

Cc1nnc(N)nc1/C=C\c1ccc(Cl)cc1Cl
inactive: NCI-H460 19.9 µM | SK-MEL-2 17 µM | HCT-116 26.9 µM | RPMI-8226 45.4 µM | DU-145 72.8 µM | A549 39.2 µM | PC-3 16.9 µM | UACC-257 54.6 µM | SW-620 22 µM | U-251 34.8 µM | SK-MEL-5 30.9 µM | COLO 205 20.9 µM | NCI-H522 24.2 µM | MOLT-4 41.4 µM | TK-10 > 100 µM | SK-OV-3 45.5 µM | MDA-MB-435 33.5 µM | T47D 55.3 µM | NCI-H23 33.7 µM

COc1cc(OC)cc(OCc2nc3cc(C(F)(F)F)ccc3nc2-c2ccccc2)c1
inactive: NCI-H460 > 100 µM | SK-MEL-2 > 100 µM | HCT-116 > 100 µM | RPMI-8226 > 100 µM | DU-145 > 100 µM | A549 > 100 µM | PC-3 > 100 µM | UACC-257 > 100 µM | SW-620 > 100 µM | U-251 > 100 µM | COLO 205 > 100 µM | NCI-H522 > 100 µM | MOLT-4 > 100 µM | TK-10 > 100 µM | SK-OV-3 > 100 µM | MDA-MB-435 > 100 µM | T47D 48 µM | NCI-H23 > 100 µM

O=C(O)/C(=C/c1ccccc1)c1ccccc1
inactive: NCI-H460 > 100 µM | SK-MEL-2 > 100 µM | HCT-116 > 100 µM | RPMI-8226 > 100 µM | DU-145 > 100 µM | A549 > 100 µM | PC-3 > 100 µM | UACC-257 > 100 µM | SW-620 > 100 µM | U-251 > 100 µM | SK-MEL-5 > 100 µM | NCI-H522 > 100 µM | MOLT-4 > 100 µM | TK-10 > 100 µM | SK-OV-3 > 100 µM | MDA-MB-435 > 100 µM | T47D > 100 µM | NCI-H23 > 100 µM

CCCCSC1=N/C(=C\c2ccc(N(C)C)cc2)C(Cl)=N1
inactive: NCI-H460 > 100 µM | SK-MEL-2 > 100 µM | HCT-116 > 100 µM | RPMI-8226 > 100 µM | DU-145 > 100 µM | A549 > 100 µM | PC-3 76.6 µM | UACC-257 > 100 µM | SW-620 > 100 µM | U-251 > 100 µM | COLO 205 > 100 µM | NCI-H522 > 100 µM | MOLT-4 > 100 µM | TK-10 > 100 µM | SK-OV-3 > 100 µM | MDA-MB-435 > 100 µM | T47D > 100 µM | NCI-H23 > 100 µM

O=C1NC(O)CCN1C1CC(O)C(CO)O1 (centres undefined)
inactive: NCI-H460 > 100 µM | SK-MEL-2 > 100 µM | HCT-116 > 100 µM | RPMI-8226 > 100 µM | DU-145 > 100 µM | A549 > 100 µM | PC-3 > 100 µM | UACC-257 > 100 µM | SW-620 > 100 µM | U-251 > 100 µM | SK-MEL-5 > 100 µM | COLO 205 > 100 µM | NCI-H522 > 100 µM | MOLT-4 > 100 µM | TK-10 > 100 µM | SK-OV-3 > 100 µM | MDA-MB-435 > 100 µM | T47D > 100 µM | NCI-H23 > 100 µM

COC(=O)c1ccccc1C1CN=NC12Cc1ccccc1C2=O (centres undefined)
inactive: NCI-H460 > 100 µM | SK-MEL-2 > 100 µM | HCT-116 > 100 µM | RPMI-8226 48 µM | DU-145 > 100 µM | A549 > 100 µM | PC-3 34 µM | UACC-257 > 100 µM | SW-620 > 100 µM | U-251 > 100 µM | SK-MEL-5 42.4 µM | COLO 205 > 100 µM | NCI-H522 59.2 µM | MOLT-4 41.7 µM | TK-10 > 100 µM | SK-OV-3 > 100 µM | MDA-MB-435 42.6 µM | T47D 41.3 µM | NCI-H23 > 100 µM

O=S(=O)(CCn1c(Sc2ccccc2)c(Sc2ccccc2)c2ccccc21)c1ccccc1
inactive: NCI-H460 > 100 µM | SK-MEL-2 > 100 µM | HCT-116 > 100 µM | RPMI-8226 > 100 µM | DU-145 > 100 µM | A549 > 100 µM | PC-3 > 100 µM | SW-620 > 100 µM | U-251 > 100 µM | SK-MEL-5 > 100 µM | COLO 205 > 100 µM | NCI-H522 > 100 µM | MOLT-4 > 100 µM | TK-10 > 100 µM | SK-OV-3 > 100 µM | MDA-MB-435 > 100 µM | T47D > 100 µM | NCI-H23 > 100 µM

COc1ccc(-c2nc3cc(C(F)(F)F)ccc3n2CC2CCCN3CCCCC23)cc1 (centres undefined)
inactive: NCI-H460 15.8 µM | SK-MEL-2 15.5 µM | HCT-116 18.1 µM | RPMI-8226 14.2 µM | DU-145 17.1 µM | PC-3 13.6 µM | UACC-257 13.8 µM | SW-620 15.2 µM | U-251 17 µM | SK-MEL-5 14.4 µM | NCI-H522 15.6 µM | MOLT-4 12.7 µM | TK-10 16.6 µM | SK-OV-3 17.7 µM | MDA-MB-435 15.8 µM | T47D 18.5 µM | NCI-H23 15.6 µM

C=CCSC1=N/C(=C\c2ccc(Cl)cc2)C(=O)N1CC=C
inactive: NCI-H460 43.7 µM | SK-MEL-2 27.7 µM | HCT-116 25.1 µM | RPMI-8226 17.4 µM | DU-145 20.5 µM | A549 32.7 µM | PC-3 20 µM | UACC-257 26.4 µM | SW-620 30.3 µM | U-251 22 µM | SK-MEL-5 16.1 µM | COLO 205 33.3 µM | NCI-H522 23 µM | TK-10 55.7 µM | SK-OV-3 42.8 µM | MDA-MB-435 28.8 µM | T47D 23.4 µM | NCI-H23 24.6 µM

COC(=O)[C@H]1CO[C@@H](C(C)(C)C)N1C(=O)N1C=CC(=O)C[C@@H]1C
inactive: SK-MEL-2 > 100 µM | HCT-116 > 100 µM | RPMI-8226 > 100 µM | DU-145 > 100 µM | A549 > 100 µM | PC-3 > 100 µM | UACC-257 > 100 µM | SW-620 > 100 µM | U-251 > 100 µM | SK-MEL-5 > 100 µM | COLO 205 > 100 µM | NCI-H522 > 100 µM | TK-10 > 100 µM | SK-OV-3 > 100 µM | MDA-MB-435 > 100 µM | T47D > 100 µM | NCI-H23 > 100 µM

Cc1ccc(S(=O)(=O)NC(=O)Nc2cccc(S(N)(=O)=O)c2)cc1
inactive: NCI-H460 > 100 µM | SK-MEL-2 > 100 µM | HCT-116 > 100 µM | RPMI-8226 > 100 µM | DU-145 > 100 µM | A549 > 100 µM | PC-3 > 100 µM | SW-620 > 100 µM | U-251 > 100 µM | SK-MEL-5 > 100 µM | COLO 205 > 100 µM | NCI-H522 > 100 µM | MOLT-4 > 100 µM | TK-10 > 100 µM | SK-OV-3 > 100 µM | MDA-MB-435 > 100 µM | T47D > 100 µM | NCI-H23 > 100 µM
